# Assays:
# [1] = tested on: P. aerug; experiment: antibiotic activity (MIC); assay type: cell-based
# [2] = tested on: PHA-stimulated human lymphocytes; experiment: inhibition of mitogen (PHA)-stimulated growth of human T-cells; assay type: cell-based; conditions: Homo sapiens, Lymphocyte, read-out: inhibition of PHA-stimulated human lymphocytes (% control); for inhibition at 10 µg/mL: 10 μg/ml
# Source text: Results are tabulated below.
# [3] = tested on: Human ovarian carcinoma SKOV3; experiment: growth inhibition in vitro (Baker et al.); assay type: cell-based
# Protocol: (§1) As set forth in Table 7 below, all malignant tumors evaluated in tissue culture, endothelial cells and vascular smooth muscle cells were sensitive to inhibition. Thus, compound 1436 has application in the control of growth factor dependent proliferation of many types of tissue.
# Using the assay described above, the anticancer effects of compound 1437 against several cancer lines was assessed.
# [4] = tested on: fasting blood glucose; experiment: fasting blood glucose in mice; assay type: in vivo, Male CD-1 mice; conditions: intravenous
# Protocol: To study the effect of steroid administrator or the NHE responsible for secretion of insulin, several of the aminosterols from shark liver were administered to fasting mice. Male CD-1 mice were assigned to one of four treatment groups. Whole blood glucose was tested using glucometer (Lifescan Glucometer II and One Touch test strips). Statistical analysis was via one-way analysis of variance (ANOVA) followed by subsequent Bonferonni's t-test.
# [5] = tested on: NHE1β; conditions: cited from earlier work
# [6] = tested on: L1210 lymphoblastic leukemia; experiment: mouse model of L1210 leukemia; assay type: in vivo, C57B mice
# [7] = tested on: chick embryo vitelline capillaries; experiment: chick embryo vitelline capillary regression assay; assay type: in vivo; set-up: key to vitelline capillary regression: +: Vascular reactivity; 0: No vascular reactivity; +/-: Equivocal reactivity; conditions: for vitelline capillary regression: 60 minutes
# Protocol: Using the chick embryo vitelline capillaries assay, compounds were tested for their ability to induce capillary regression. Each compound was applied in 0.1 ml of 15% Ficol 400 and PBS onto the embryo, and vascular regression was assessed after 60 minutes.
# The 3-day chick embryo consists of an embryonic disc from which numerous vessels emerge and return, forming a "figure 8"-shaped structure--the embryo in the center with vascular loops extending outward over both poles. […] Following a lag period of around 15 minutes, the constriction of continuity between capillary and secondary vessels, generally on the "venous" side, was observed. Continued pulsatile blood flow progressed, resulting in a "swelling" of the blind tube, followed by a pinching off of the remaining connection and formation of an enclosed vascular sac resembling a "blood island." This process progressed until only the largest vessels remained intact.
# [8] = tested on: B16 melanoma; experiment: B16 melanoma growth in C57B mice; assay type: in vivo, mouse
# Protocol: The growth of B16 melanoma in C57B mice is dependent upon neovascularization.
# Using the growth of B16 melanoma cells in C57B mice, a recognized model for the evaluation of inhibitors of angiogenesis on the growth of cancers, the effects of subcutaneous, intraperitoneal and oral administration of squalamine were evaluated.
# Based on the idea that tumor growth involves both the clonal expansion of a malignant cell along with the development of a supporting vascular supply, a combination of compound 1436 with squalamine was tested to determine whether it would achieve a synergistic effect on solid tumor growth. This concept was evaluated in the B16 melanoma model.
# Animals were implanted with B16 melanoma followed by treatment with compound 1436 or 1256 administered in a combined schedule or separately. […] Thus, a combination of these two compounds achieves a therapeutic benefit in tumors dependent on neovascularization that may prevent metastatic spread.
# [9] = mouse IV PK study, HPLC; conditions: in vivo
# Protocol: To assess clearance, a mouse IV PK study was performed for compound 319 and squalamine. The compound was administered i.v. and blood samples were taken every 10 minutes. The concentration of the administered steroid was determined by HPLC analysis.
# [10] = tested on: stage 59-60 Xenopus tadpoles; conditions: for tadpole tail capillary occlusion: squalamine at 10 μg/ml
# [11] = tested on: human melanoma; experiment: human melanoma growth time course and cell death (Baker et al.); assay type: cell-based
# [12] = tested on: Human colon carcinoma HT29; experiment: growth inhibition in vitro (Baker et al.); assay type: cell-based; conditions: 10 μg/ml
# Source text: as §1
# [13] = tested on: Human colon carcinoma SW948; experiment: growth inhibition in vitro (Baker et al.); assay type: cell-based; conditions: 10 μg/ml
# Source text: as §1
# [14] = tested on: Human coronary artery smooth muscle cells; experiment: growth inhibition in vitro (Baker et al.); assay type: cell-based; conditions: 10 μg/ml
# Source text: as §1
# [15] = tested on: Human melanoma WM 1617; experiment: growth inhibition in vitro (Baker et al.); assay type: cell-based; conditions: 10 μg/ml
# Source text: as §1
# [16] = tested on: Human microvascular endothelial cells; experiment: growth inhibition in vitro (Baker et al.); assay type: cell-based; conditions: 10 μg/ml
# Source text: as §1
# [17] = tested on: Murine L1210 leukemia; experiment: growth inhibition in vitro (Baker et al.); assay type: cell-based; conditions: 10 μg/ml
# Source text: as §1
# [18] = tested on: bovine pulmonary endothelial cells; experiment: growth inhibition in vitro (Baker et al.); assay type: cell-based; conditions: 10 μg/ml
# Source text: as §1
# [19] = tested on: human umbilical venous endothelial cells; experiment: growth inhibition in vitro (Baker et al.); assay type: cell-based; conditions: 10 μg/ml
# Source text: as §1
# [20] = tested on: Lewis lung carcinoma; experiment: growth inhibition / cytotoxicity in vitro; assay type: cell-based; conditions: 10 μg/ml
# Source text: as §1
# [21] = tested on: Murine B16 melanoma; experiment: growth inhibition in vitro; assay type: cell-based; conditions: 10 μg/ml
# Source text: as §1
# [22] = tested on: human coronary artery smooth muscle; experiment: proliferation of human coronary artery smooth muscle in vitro; assay type: cell-based
# Source text: Aminosterols of the invention may also have utility in inhibiting the growth factor mediated proliferation of smooth muscle within the artery. Following coronary angioplasty, reocclusion commonly occurs, secondary to reparative proliferation of the vascular smooth muscle within the wall of the surgically manipulated blood vessel. This process generally takes place over the course of 7-10 days. To evaluate whether an agent could prevent the growth factor mediated proliferation of smooth muscle within the artery, compound 1436 was evaluated in vitro for its effect on the proliferation of human coronary artery smooth muscle. Results for compound 1436 are shown in FIG. 13, and those for squalamine are shown in FIG. 14, with FIG. 15 being a composite logarithmic plot.
# [23] = growth and weight gain in growing mice; assay type: in vivo, C57B mice
# Protocol: Animals were dosed QTD (i.p.) starting on Day 1. […] Animals receiving 5 mg/kg QTD experienced about a 50% reduction in growth, compared to untreated controls, while animals receiving 1 mg/kg QTD were affected by about 10%. […] They appeared very much like hypophysectamized animals might appear.
# [24] = tested on: arterial pressure; experiment: arterial pressure in the rat after i.v. administration; assay type: in vivo
# Protocol: A 200-g rat was catheterized in the right carotid artery, and the compound was introduced over a ten-second period to a total dosage of 5 mg/kg. Within 30 seconds, the mean arterial pressure had fallen from about 100 mm Hg to about 70 mm Hg, with a marked reduction in pulse pressure from about 40 mm to about 10 mm. […] If cardiac output was basically unaffected, reduction in blood pressure would have resulted principally from a reduction in system resistance.
# At that time, 40 μg of noradrenaline was introduced.
# [25] = tested on: heart of a juvenile Xenopus laevis frog; experiment: ex vivo beating of isolated frog heart; conditions: 10 μg/ml; Krebs-Ringer with adrenaline 50 μg/ml; about one hour without compound
# Protocol: To determine if compound 1436 has such utility, the following experiment was performed. The heart of a juvenile Xenopus laevis frog was dissected from the living animal. The heart was placed into a Petri dish containing Krebs-Ringer buffer with adrenaline 50 μg/ml, and examined with the naked eye. At room temperature, the heart continued beating in a coordinated fashion (atrial beat followed by ventricular beat) for about one hour. In the presence of 10 μg/ml of compound 1436, spontaneous beating persisted up to 24 hours.
# [26] = target: rabbit NHE3 (Oryctolagus cuniculus, UniProt P26432); conditions: 10 μg/ml; acid preloaded by 40 mM NH4Cl
# Chain of rabbit NHE3 (P26432 30-832): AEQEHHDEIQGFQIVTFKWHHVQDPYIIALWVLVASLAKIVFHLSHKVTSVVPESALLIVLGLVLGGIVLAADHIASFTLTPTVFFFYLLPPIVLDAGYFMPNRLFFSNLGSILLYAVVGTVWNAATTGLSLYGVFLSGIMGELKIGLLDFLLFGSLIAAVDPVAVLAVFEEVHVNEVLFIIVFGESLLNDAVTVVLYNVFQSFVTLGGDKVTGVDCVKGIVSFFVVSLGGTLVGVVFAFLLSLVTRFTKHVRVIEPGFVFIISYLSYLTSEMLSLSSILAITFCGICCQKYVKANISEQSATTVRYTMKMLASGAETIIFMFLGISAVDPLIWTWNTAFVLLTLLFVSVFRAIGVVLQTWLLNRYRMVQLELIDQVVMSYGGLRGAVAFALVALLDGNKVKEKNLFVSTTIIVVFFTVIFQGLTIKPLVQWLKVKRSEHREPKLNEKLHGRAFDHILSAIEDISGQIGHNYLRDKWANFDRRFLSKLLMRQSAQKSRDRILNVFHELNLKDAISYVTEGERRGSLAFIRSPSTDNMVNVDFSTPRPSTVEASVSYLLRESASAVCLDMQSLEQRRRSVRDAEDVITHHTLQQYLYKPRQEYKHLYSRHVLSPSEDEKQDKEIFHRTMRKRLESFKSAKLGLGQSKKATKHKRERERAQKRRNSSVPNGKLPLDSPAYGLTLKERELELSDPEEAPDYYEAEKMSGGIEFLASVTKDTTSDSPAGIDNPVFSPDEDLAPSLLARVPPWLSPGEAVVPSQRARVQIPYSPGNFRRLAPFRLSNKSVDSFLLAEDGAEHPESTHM
# Protocol: Internal pH was measured either following acid loading or in the absence of an acid-loading challenge, with the results shown in FIGS. 1A and 1B.
# Specifically, PS120 fibroblasts transfected with rabbit NHE3 were grown in supplemented Dulbecco's-modified Eagle's medium as described by Levine et al., J. Biol. Chem. 268, 1993, 25527-25535. […] For cells not acid-preloaded, the actual internal pH value was monitored as a function of time following addition of squalamine, with the results depicted in FIG. 1B.
# PS120 fibroblasts transfected with rabbit NHE3 were grown and acid preloaded by exposure to 40 mM NH4 Cl as described above in conjunction with FIGS. 1A and 1B. Internal cellular pH changes expressed as the rate of pH recovery as a function of restored extracellular sodium ion concentration following exposure to 10 μg/ml of the compound were assayed with the fluorescent dye BCECF-AM as described above.
compound,measurement,setting,value
COC(=O)CCC(C)[C@H]1CCC2C3C[C@@H](O)[C@H]4C[C@H](NCCCNCCCCNCCCN)CC[C@]4(C)C3CC[C@@]21C (stereo partly shown),MIC,[1],128 µg/mL
COC(=O)CCC(C)[C@H]1CCC2C3C[C@@H](O)[C@H]4C[C@@H](NCCCNCCCCNCCCN)CC[C@]4(C)C3CC[C@@]21C (stereo partly shown),MIC,[1],32 µg/mL
CC(CCC(=O)O)[C@H]1CCC2C3C[C@@H](O)[C@H]4C[C@@H](NCCCNCCCCNCCCN)CC[C@]4(C)C3CC[C@@]21C (stereo partly shown),MIC,[1],8 µg/mL
"CC(C)C(CO)(CC[C@@H](C)[C@H]1CC[C@H]2[C@@H]3[C@H](O)C[C@H]4C[C@@H](NCCCNCCCCN)CC[C@]4(C)[C@H]3CC[C@]12C)OS(=O)(=O)O (single isomer, unassigned) [Compound 1437]",inhibition at 10 µg/mL,[2],10%
same,anticancer activity,[3],found to exhibit anticancer activity
same,hyperglycemia,[4],caused hyperglycemia in mice
"N=C(N)NC(=O)c1nc(Cl)c(N)nc1N [Amiloride, amiloride]",inhibition of NHE1β,[5],inhibited by high concentrations
"N.N.[Cl][Pt][Cl] [Cisplatin, cisplatin, reference compound]",anemia,[6]; by day 28,profound anemia
C[C@H](CCC(=O)O)[C@H]1CC[C@H]2[C@@H]3CC[C@H]4C[C@@H](NCCCNCCCCN)CC[C@]4(C)[C@H]3CC[C@]12C [Compound 319],vitelline capillary regression,[7]; 0.001 μg applied,+/-
same,vitelline capillary regression,[7]; 0.01 μg applied,+
same,vitelline capillary regression,[7]; 0.1 μg applied,+
same,vitelline capillary regression,[7]; 1 μg applied,+
same,vitelline capillary regression,[7]; 10 μg applied,+
same,activity in vitelline capillary regression assay (in words),[7]; in vivo,especially active
same,control of B16 melanoma,[8]; subcutaneous administration (FIG. 6),control of B16 in C57B mice to an extent almost comparable to squalamine
same,pharmacokinetic clearance compared with squalamine,[9],more rapid pharmacokinetic clearance than squalamine
same,tadpole tail capillary occlusion,[10],common vascular occlusive effect
CC(C)CCC[C@@H](C)[C@H]1CC[C@H]2[C@@H]3CC[C@H]4C[C@@H](NCCCNCCCCNCCCN)CC[C@]4(C)[C@H]3CC[C@]12C [Compound 353],vitelline capillary regression,[7]; 1 μg applied,+/-
same,effect on chick embryo vitelline capillaries (in words),[7]; in vivo,no effect on the chick embryo capillary bed
same,apoptotic cell death,[11],apoptotic cell death has been induced
same,effect on growth of melanoma (time course),[11]; FIG. 17A,"most pronounced over 48 hours, with less of an effect noted within the first 12 hours of incubation"
same,tadpole response similar to compound 1436,[10]; tadpole assay,produce effects like those produced by compound 1436
CC(C)[C@@H](CC[C@@H](C)[C@H]1CC[C@H]2[C@@H]3[C@H](O)C[C@H]4C[C@@H](NCCCNCCCCNCCCN)CC[C@]4(C)[C@H]3CC[C@]12C)OS(=O)(=O)O [Compound 1436],vitelline capillary regression,[7]; 0.001 μg applied,+/-
same,vitelline capillary regression,[7]; 0.01 μg applied,+
same,vitelline capillary regression,[7]; 0.1 μg applied,+
same,vitelline capillary regression,[7]; 1 μg applied,+
same,vitelline capillary regression,[7]; 10 μg applied,+
same,effect on chick embryo vitelline capillaries (in words),[7]; in vivo,causes vitelline capillary regression with about the same potency as squalamine
same,impact on tumor volume,[8]; compound 1436 alone 10 mg/kg/every 3 days,no significant impact on tumor volume
same,"tumor growth, single agent","[8]; squalamine 15 mg/kg/day, compound 1436 alone in a tolerable schedule",Neither administration of squalamine at 15 mg/kg/day nor compound 1436 alone in a tolerable schedule could achieve this effect
same,inhibition at 1 µg/mL,[2]; 1 μg/ml,20%
same,inhibition at 5 µg/mL,[2]; 5 μg/ml,50%
same,inhibition at 10 µg/mL,[2],80%
same,cancer cells inhibited in vitro,[12],INHIBITED
same,cancer cells inhibited in vitro,[13],INHIBITED
same,non-transformed cells inhibited in vitro,[14],INHIBITED
same,cancer cells inhibited in vitro,[15],INHIBITED
same,non-transformed cells inhibited in vitro,[16],INHIBITED
same,cancer cells inhibited in vitro,[17],INHIBITED
same,non-transformed cells inhibited in vitro,[18],INHIBITED
same,non-transformed cells inhibited in vitro,[19],INHIBITED
same,cancer cells inhibited in vitro,[3]; 10 μg/ml,INHIBITED
same,cancer cells inhibited in vitro,[20],INHIBITED
same,cancer cells inhibited in vitro,[21],INHIBITED
same,survival,[6]; highest dose (10 mg/kg every 3 days i.p.),significant prolongation of life
same,granulocyte count,"[6]; mouse, in vivo",robust granulocyte count
same,hematocrit,"[6]; mouse, in vivo",near normal hematocrit
same,hyperglycemia,[4],caused hyperglycemia in mice
same,suppression of growth (in words),[22]; FIG. 15,suppress in vitro the growth of human coronary artery smooth muscle
same,viability,[22]; about 11 μg/ml,without loss of viability
same,reduction in growth of mice,[23]; 1 mg/kg QTD i.p.,about 10%
same,suppression of growth of mice,"[23]; 10 mg/kg QTD i.p., about 1 month",growth was almost completely inhibited
same,health of treated animals,"[23]; mouse, in vivo","all were active, normally proportioned, not-cachectic, and in excellent apparent clinical health"
same,reversibility of effect,[24]; 40 μg noradrenaline at 30 minutes,readily reversible
same,duration of effect on arterial pressure,[24]; 5 mg/kg i.v.,"followed for 30 minutes, without significant change"
same,heart rate,[24]; 5 mg/kg i.v.,no significant increase in heart rate was observed
same,time to fall in arterial pressure,[24]; 5 mg/kg i.v.,≤ 30 s
same,pulse pressure after dosing,"[24]; 5 mg/kg i.v., from about 40 mm",about 10 mm
same,mean arterial pressure after dosing,"[24]; 5 mg/kg i.v., from about 100 mm Hg",about 70 mm Hg
same,persistence of spontaneous beating of isolated heart,[25],up to 24 hours
same,time to death of tadpole,[10]; in vivo,about 2 hours
same,tadpole tail capillary occlusion,[10],common vascular occlusive effect
same,inhibition of rabbit NHE3,[26],found to inhibit rabbit NHE3
COC(=O)CCC(C)[C@H]1CCC2C3CC[C@H]4C[C@H](NCCCNCCCCNCCCN)CC[C@]4(C)C3CC[C@@]21C (stereo partly shown) [drawing 74],MIC,[1],64 µg/mL
